Measurements: patent US20100144873A1, “TREATMENT OF MYOCARDITIS USING FTS” (RAMOT AT TEL-AVIV UNIVERSITY LTD., priority 2007, published 2010)

How the values were obtained:
[1] = system: lymphocytes from lymph nodes of rats with EAM; assay: Ex vivo proliferation assay with FTS (XTT, 96 h) on lymphocytes from EAM rats; format: cell-based, rat
Experimental: FTS was provided by Concordia Pharmaceuticals, Inc. (Ft. Lauderdale, Fla.). FTS was stored in chloroform, which was evaporated under a stream of nitrogen immediately before use. The powder was dissolved in DMSO. This solution was diluted with RPMI/10% FCS to yield a 10 mM drug stock solution containing 10% DMSO. A portion of this solution was applied to the cells at a dilution of 1:100. Ex Vivo Proliferation Assay with FTS Five (5) rats with EAM were sacrificed on day fourteen (14). Lymphocytes were taken from lymph nodes, prepared as described and 1×10^5 cells/well seeded in 96 microwell plates. Lymphocytes were incubated in the presence of Myosin 2.5 μg/ml or Concavalin A in the presence of 0, 3.125, 6.25, 12.5, and 25 μM FTS. Lymphocyte proliferation was evaluated using XTT reagent after 96 h of incubation. To investigate the effect of FTS on the proliferative capacity of lymphocytes from EAM rats against myosin ex vivo, lymph nodes were excised from the EAM rodent models fourteen (14) days following myosin immunizations. Thereafter, lymphocytes were incubated in the presence of (A) myosin (2.5 μg/ml) and (B) Concavalin A (4 μg/ml) with varying concentrations of FTS. […] The proliferation rate was reduced in the presence of 50 μM FTS ex vivo by 48% (FIG. 1B). Thus, proliferation of lymphocytes against potential cardiac epitopes may be attenuated following FTS administration.

[2] = system: lymphocytes from lymph nodes of FTS-treated Lewis rats; assay: Lymphocyte proliferation assay (XTT) on lymphocytes from FTS-treated myosin-immunized rats; format: in vivo, Lewis rat
Experimental: (§1) Porcine cardiac myosin (Sigma) was dissolved in PBS to a concentration of 0.4 μg/ul. Each rat was immunized by a single subcutaneous injection in both footpads on day 0 with an emulsion containing 1 mg of cardiac myosin with an equal volume of complete Freund's adjuvant containing 10.0 mg/mL of heat-killed Mycobacterium tuberculosis.
(§2) FTS was provided by Concordia Pharmaceuticals, Inc. (Ft. Lauderdale, Fla.). FTS was stored in chloroform, which was evaporated under a stream of nitrogen immediately before use. The powder was dissolved in absolute ethanol and diluted to the desired concentration in sterile PBS made basic with NaOH. Carrier solution (1000 μl) containing 1.35 mg of FTS (5 mg/kg) was injected intraperitoneally (i.p.) into each rat. Control solution was prepared at the same time, starting with PBS and absolute ethanol.
(§3) Two groups of rats were induced to develop EAM by immunization with cardiac myosin according to two protocols. In Protocol 1 (prevention regimen), FTS or PBS (control) was administered two (2) days prior to myosin immunization at a dose of 5 mg/kg (FTS pre-treatment before immunization). Thereafter, dosing was continued for a period of fourteen (14) days with administration of FTS or PBS occurring every other day. […]
Lymphocyte proliferation was evaluated using XTT reagent, according to standard procedures, after 96 h of incubation. […]

[3] = system: IgG anti-myosin antibodies; assay: IgG anti-myosin antibody levels in sera by ELISA; format: in vivo, Lewis rat; details: FTS 5 mg/kg i.p., p<0.05 vs control
Experimental: as §1, §2, §3

[4] = system: experimental autoimmune myocarditis (EAM); assay: Histopathology, H&E: severity of myocarditis (Dallas criteria) in EAM; format: in vivo, Lewis rat; details: FTS 5 mg/kg i.p., mean±SE, control group 1.61±0.23, p<0.05
Experimental: as §1, §2
Two groups of rats were induced to develop EAM by immunization with cardiac myosin according to two protocols. […]
Hearts were removed and fixed in 10% formalin, then embedded in paraffin. […] Every fifth section was examined for the presence of myocarditis by light microscopy, and was evaluated according to previously published criteria (the Dallas criteria) describing the severity of myocarditis as follows: severe (2)>50% of the heart involved; moderate (1)=10-50% involved; and minimal (0)=<10% involved, or normal. […]

[5] = system: experimental autoimmune myocarditis (EAM); assay: Histopathology, Masson trichrome: scar area (collagen deposition) in EAM; format: in vivo, Lewis rat; details: FTS 5 mg/kg i.p., vs control rats
Experimental: as §1, §2
Two groups of rats were induced to develop EAM by immunization with cardiac myosin according to two protocols. In Protocol 1 (prevention regimen), FTS or PBS (control) was administered two (2) days prior to myosin immunization at a dose of 5 mg/kg (FTS pre-treatment before immunization). […]
In order to evaluate the severity of scaring of the heart tissue, Masson trichrome staining was performed to assess collagen deposition in the three study groups. […] FIGS. 4B and C illustrate typical representations of the stained sections and quantitative analysis of the results.

[6] = system: Ras and its downstream signaling effectors in lymphocytes; assay: Western immunoblotting of total Ras, Erk, P-Erk, Akt, P-Akt in lymphocytes of treated rats; format: in vivo, Lewis rat
Experimental: (§4) Two groups of rats were induced to develop EAM by immunization with cardiac myosin according to two protocols. In Protocol 1 (prevention regimen), FTS or PBS (control) was administered two (2) days prior to myosin immunization at a dose of 5 mg/kg (FTS pre-treatment before immunization). Thereafter, dosing was continued for a period of fourteen (14) days with administration of FTS or PBS occurring every other day. In Protocol 2 (treatment regimen), FTS or PBS (control) was administered fourteen (14) days after porcine cardiac myosin immunization at a dose of 5 mg/kg (FTS post-EAM). Thereafter, dosing was continued for a period of seven (7) days with administration of FTS or PBS occurring every other day. Under both protocols, the Lewis rats were sacrificed at day 21 and hearts, lymph nodes and spleens were excised for histological and immunological analyses.
Lymphocytes were obtained from lymph nodes of FTS- and PBS-treated rats. The lymphocytes were homogenized in cold homogenization buffer containing protease inhibitors. Protein concentration was determined by the Bradford assay and samples containing 100 μg protein were used for determination of total Ras, total Erk, P-Erk, total Akt and P-Akt by Western immunoblotting using, respectively: pan-anti-Ras Ab (Ab03; Santa Cruz, Calif.), anti Erk Ab (Santa Cruz, Calif.), anti P-Erk Ab (Sigma), anti Akt Ab (Cell Signaling), and anti P-Akt Ab (Cell Signaling).
Enhanced chemiluminescence (ECL) and densitometric analysis were performed as detailed in R. Haklai, M. G. Weisz, G. Elad, et al., Biochemistry 37:1306-1314 (1998).

[7] = system: active GTP-bound Ras; assay: Ras-GTP determination by glutathione S-transferase-RBD pull-down assay in lymphocytes of treated rats; format: in vivo, Lewis rat
Experimental: as §4
The lymphocytes were prepared as mentioned above. Samples containing 1.5 mg protein used for determination of levels of active GTP-bound Ras by the glutathione S-transferase-RBD pull-down assay followed by Western immunoblotting with pan-anti-Ras Ab as detailed in G. Elad-Sfadia, R. Haklai, E. Ballan et al., J. Biol. Chem. 277:37169-75 (2002).

[8] = system: myocardial dysfunction following myosin-induced EAM; assay: M-mode echocardiography after six weeks of FTS in EAM; format: in vivo, Lewis rat; details: FTS 5 mg/kg from 2 days before myosin immunization, every other day for six weeks; vs PBS-treated
Experimental: as §1, §2
Another group of experiments was designed to study the effects of FTS on prevention of myocardial dysfunction following myosin-induced EAM. Under this regimen, FTS or PBS was given two (2) days before myosin immunization, then every other day for six (6) weeks (when compromised heart function is expected). After six (6) weeks, M-mode echocardiography was performed as described in George J, Biner S, Keren P, Barshack I, Goldberg I, Sherez J, Levitski A, Keren G, Roth A. Exp Mol. Pathol. 74(3):314-8 2003. […]

[9] = human Phase I, doses up to 1800 mg/day; cited from earlier work
[10] = Protocol 1 FTS-treated rats vs control
[11] = Protocol 1 FTS-treated rats vs control animals

SMILES: CC(C)=CCC/C(C)=C/CC/C(C)=C/CSc1ccccc1C(=O)O [FTS, S-farnesylthiosalicylic acid]
- reduction of proliferation rate of Concavalin A-treated lymphocytes ([1]; Concavalin A 4 μg/ml, 50 μM FTS ex vivo): 48%
- proliferation of Concavalin A-treated lymphocytes vs controls ([1]; Concavalin A 4 μg/ml, varying concentrations of FTS ex vivo): dose-dependent reduction in proliferation
- reduction of lymphocyte proliferation to myosin ([1]; myosin 2.5 μg/ml, FTS 25 and 50 μM, ex vivo, vs controls, p<0.05): 79±7%
- proliferation in response to non-specific mitogen Concavalin A ([2]; FTS-treated rats vs control animals (data not shown)): not diminished
- decrease in lymphocyte proliferation in comparison with PBS ([2]; Protocol 1 (prevention): FTS 5 mg/kg i.p. from 2 days before myosin immunization, every other day for 14 days, p<0.05): ~35%
- IgG anti-myosin antibody levels ([3]; Protocol 1 (prevention)): significantly reduced levels of IgG anti-myosin antibody
- IgG anti-myosin antibody levels ([3]; Protocol 2 (treatment)): significantly reduced IgG anti-myosin antibody levels
- severity of myocarditis (myocarditis score) ([4]; Protocol 1 (prevention)): 0.28±0.15 scale of 0-2 arbitrary units
- severity of myocarditis (myocarditis score) ([4]; Protocol 2 (treatment)): 0.33±0.24 scale of 0-2 arbitrary units
- collagen deposition (scar formation) ([5]; Protocol 1 (prevention)): reduced collagen deposition
- collagen deposition (scar formation) ([5]; Protocol 2 (treatment)): reduced collagen deposition
- phospho-Akt level in lymphocytes [6, 10]: significant decrease
- phospho-Erk level in lymphocytes [6, 10]: significant decrease
- total Akt level in lymphocytes [6, 10]: not affected
- total Erk level in lymphocytes [6, 10]: not affected
- total Ras level in lymphocytes [6, 11]: downregulated
- Ras-GTP level in lymphocytes [7, 11]: downregulated
- ratio of Ras-GTP to total Ras ([7]; lymphocytes of Protocol 1 FTS-treated rats): did not significantly alter
- fractional shortening (systolic parameter) [8]: improved
- left ventricular diastolic diameter [8]: improved
- dose-limiting toxicities [9]: no dose-limiting toxicities
